Laboratory results: patent US20070021419A1, “2-Aminophenyl-4-phenylpyrimidines as kinase inhibitors” (Cyclacel Limited, priority 2003, published 2007)

How the values were obtained:
CDK2/cyclin E = CDK2/cyclin E (Homo sapiens, UniProt P24941); test: Kinase assay, radioactive phosphate incorporation, CDK2/cyclin E; format: biochemical; details: 100 μM ATP, 30° C.; read-out: Kinase inhibition IC50 CDK2/cyclin E
Procedure, shortened: (§1)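 Steps: enzyme (2-4 μg) plus substrate in pH 7.4 buffer with DTT and vanadate; start with 100 μM ATP/15 mM MgCl2 containing [γ-32P]-ATP; incubate at 30° C; stop on ice; filter, wash with 75 mM orthophosphoric acid; scintillation count. Compounds diluted from DMSO stocks into 10% DMSO buffer.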

GSK3β = GSK3β (Homo sapiens, UniProt P49841); test: Kinase assay, radioactive phosphate incorporation, GSK3β; format: biochemical; details: 100 μM ATP, 30° C.; read-out: Kinase inhibition IC50 GSK3β
Procedure, shortened: as §1

CDK1/cyclin B = CDK1/cyclin B (Homo sapiens, UniProt P06493); test: Kinase assay, radioactive phosphate incorporation, CDK1/cyclin B; format: biochemical; details: 100 μM ATP, 30° C.; read-out: Kinase inhibition IC50 CDK1/cyclin B
Description: (§2) The compounds from the examples above were investigated for their ability to inhibit the enzymatic activity of various protein kinases. This was achieved by measurement of incorporation of radioactive phosphate from ATP into appropriate polypeptide substrates. Recombinant protein kinases and kinase complexes were produced or obtained commercially. Assays were performed using 96-well plates and appropriate assay buffers (typically 25 mM β-glycerophosphate, 20 mM MOPS, 5 MM EGTA, 1 mM DTT, 1 mM Na3VO3, pH 7.4), into which were added 2-4 μg of active enzyme with appropriate substrates. The reactions were initiated by addition of Mg/ATP mix (15 mM MgCl2+100 μM ATP with 30-50 kBq per well of [γ-^32P]-ATP) and mixtures incubated as required at 30° C. Reactions were stopped on ice, followed by filtration through p81 filterplates or GF/C filterplates (Whatman Polyfiltronics, Kent, UK). After washing 3 times with 75 mM aq orthophosphoric acid, plates were dried, scintillant added and incorporated radioactivity measured in a scintillation counter (TopCount, Packard Instruments, Pangbourne, Berks, UK). Compounds for kinase assay were made up as 10 mM stocks in DMSO and diluted into 10% DMSO in assay buffer.

CDK7/cyclin H = CDK7/cyclin H (Homo sapiens, UniProt P50613); test: Kinase assay, radioactive phosphate incorporation, CDK7/cyclin H; format: biochemical; details: 100 μM ATP, 30° C.; read-out: Kinase inhibition IC50 CDK7/cyclin H
Procedure, shortened: as §1

CDK4/cyclin D1 = CDK4/cyclin D1 (Homo sapiens, UniProt P11802); test: Kinase assay, radioactive phosphate incorporation, CDK4/cyclin D1; format: biochemical; details: 100 μM ATP, 30° C.; read-out: Kinase inhibition IC50 CDK4/cyclin D1
Procedure, shortened: as §1

Aurora-A = biological target: T1, Aurora-A (Homo sapiens, UniProt O14965); test: Kinase assay, radioactive phosphate incorporation, Aurora-A; format: biochemical; details: 100 μM ATP, 30° C.; read-out: Kinase inhibition IC50 Aurora-A
T1 sequence (O14965 1-403): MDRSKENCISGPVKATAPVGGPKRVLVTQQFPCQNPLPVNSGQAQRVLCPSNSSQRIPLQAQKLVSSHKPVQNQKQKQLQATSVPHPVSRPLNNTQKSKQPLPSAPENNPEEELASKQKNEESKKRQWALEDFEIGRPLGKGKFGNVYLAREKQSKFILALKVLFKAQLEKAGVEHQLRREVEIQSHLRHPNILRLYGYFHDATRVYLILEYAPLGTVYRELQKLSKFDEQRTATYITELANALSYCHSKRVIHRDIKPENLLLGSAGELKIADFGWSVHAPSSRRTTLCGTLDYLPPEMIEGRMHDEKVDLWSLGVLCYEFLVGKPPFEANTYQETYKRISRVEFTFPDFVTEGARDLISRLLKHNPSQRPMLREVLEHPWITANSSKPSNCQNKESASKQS
Description: as §2

CDK2/cyclin A = CDK2/cyclin A (Homo sapiens, UniProt P24941); test: Kinase assay, radioactive phosphate incorporation, CDK2/cyclin A; format: biochemical; details: 100 μM ATP, 30° C.; read-out: Kinase inhibition IC50 CDK2/cyclin A
Procedure, shortened: as §1

CDK9/cyclin T1 = CDK9/cyclin T1 (Homo sapiens, UniProt P50750); test: Kinase assay, radioactive phosphate incorporation, CDK9/cyclin T1; format: biochemical; details: 100 μM ATP, 30° C.; read-out: Kinase inhibition IC50 CDK9/cyclin T1
Procedure, shortened: as §1

HT29 = test: 72-h MTT cytotoxicity assay, HT29; format: cell-based; details: Homo sapiens, HT-29, read-out: 72-h MTT IC50 HT29, HT29 cell line
Procedure, shortened: (§3)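 Seeding by doubling time, overnight 37° C; compounds, 1/3 serial dilution, triplicate, 72 h at 37° C; PBS wash; MTT (5 mg/mL stock) 4 h dark, 37° C; DMSO solubilisation.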

[1] = tested on: transformed human cell lines (A549, HT29, Saos-2); test: 72-h MTT cytotoxicity assay, average of cell lines; format: cell-based; details: read-out: 72-h MTT IC50 Average, average of A549, HT29, Saos-2
Procedure, shortened: as §3

A549 = test: 72-h MTT cytotoxicity assay, A549; format: cell-based; details: Homo sapiens, read-out: 72-h MTT IC50 A549, A549 cell line
Procedure, shortened: as §3

Saos-2 = test: 72-h MTT cytotoxicity assay, Saos-2; format: cell-based; details: Homo sapiens, read-out: 72-h MTT IC50 Saos-2, Saos-2 cell line
Procedure, shortened: as §3

GSK3β, sequence (P49841 whole entry, species assumed): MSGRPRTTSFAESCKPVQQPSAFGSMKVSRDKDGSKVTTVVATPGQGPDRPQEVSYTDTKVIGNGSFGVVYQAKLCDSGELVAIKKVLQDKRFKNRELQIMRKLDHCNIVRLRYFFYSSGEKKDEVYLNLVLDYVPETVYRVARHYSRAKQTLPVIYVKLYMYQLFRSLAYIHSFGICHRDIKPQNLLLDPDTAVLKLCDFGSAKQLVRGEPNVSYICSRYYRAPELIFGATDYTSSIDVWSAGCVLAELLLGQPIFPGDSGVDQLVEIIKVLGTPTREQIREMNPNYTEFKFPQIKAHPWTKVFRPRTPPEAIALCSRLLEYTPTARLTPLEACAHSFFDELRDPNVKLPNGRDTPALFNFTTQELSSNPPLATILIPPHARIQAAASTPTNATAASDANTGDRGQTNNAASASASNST
CDK9/cyclin T1, sequence (P50750 whole entry, species assumed): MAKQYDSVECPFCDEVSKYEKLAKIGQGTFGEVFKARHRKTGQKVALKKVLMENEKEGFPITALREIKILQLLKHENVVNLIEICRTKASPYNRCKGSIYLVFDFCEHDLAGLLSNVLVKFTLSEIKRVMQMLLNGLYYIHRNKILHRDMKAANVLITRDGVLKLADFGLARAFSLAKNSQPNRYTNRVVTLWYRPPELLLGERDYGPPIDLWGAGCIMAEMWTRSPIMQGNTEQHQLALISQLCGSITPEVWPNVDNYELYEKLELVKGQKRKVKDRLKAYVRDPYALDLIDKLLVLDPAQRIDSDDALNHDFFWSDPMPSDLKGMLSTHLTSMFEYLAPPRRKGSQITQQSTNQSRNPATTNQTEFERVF
CDK9/cyclin T1, sequence (O60563 whole entry partner, species assumed): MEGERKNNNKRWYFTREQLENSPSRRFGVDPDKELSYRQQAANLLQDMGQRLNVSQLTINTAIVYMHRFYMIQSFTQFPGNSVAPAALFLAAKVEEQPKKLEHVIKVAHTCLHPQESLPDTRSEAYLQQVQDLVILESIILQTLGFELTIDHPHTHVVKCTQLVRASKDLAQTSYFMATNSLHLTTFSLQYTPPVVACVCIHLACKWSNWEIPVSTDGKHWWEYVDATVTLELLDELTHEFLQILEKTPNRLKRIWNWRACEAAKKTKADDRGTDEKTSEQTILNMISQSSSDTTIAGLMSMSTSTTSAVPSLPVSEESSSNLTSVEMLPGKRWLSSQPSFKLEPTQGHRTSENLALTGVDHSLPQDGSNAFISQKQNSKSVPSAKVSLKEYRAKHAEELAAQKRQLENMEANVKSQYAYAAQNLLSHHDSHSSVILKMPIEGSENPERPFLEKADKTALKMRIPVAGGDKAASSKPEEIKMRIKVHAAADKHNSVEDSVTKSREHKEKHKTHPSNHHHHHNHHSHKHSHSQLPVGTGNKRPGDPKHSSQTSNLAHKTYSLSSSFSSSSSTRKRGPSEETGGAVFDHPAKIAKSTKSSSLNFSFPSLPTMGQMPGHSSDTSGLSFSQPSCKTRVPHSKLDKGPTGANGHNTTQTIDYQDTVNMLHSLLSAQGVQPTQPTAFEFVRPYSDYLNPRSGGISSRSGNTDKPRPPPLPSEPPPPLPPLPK
CDK7/cyclin H, sequence (P50613 whole entry, species assumed): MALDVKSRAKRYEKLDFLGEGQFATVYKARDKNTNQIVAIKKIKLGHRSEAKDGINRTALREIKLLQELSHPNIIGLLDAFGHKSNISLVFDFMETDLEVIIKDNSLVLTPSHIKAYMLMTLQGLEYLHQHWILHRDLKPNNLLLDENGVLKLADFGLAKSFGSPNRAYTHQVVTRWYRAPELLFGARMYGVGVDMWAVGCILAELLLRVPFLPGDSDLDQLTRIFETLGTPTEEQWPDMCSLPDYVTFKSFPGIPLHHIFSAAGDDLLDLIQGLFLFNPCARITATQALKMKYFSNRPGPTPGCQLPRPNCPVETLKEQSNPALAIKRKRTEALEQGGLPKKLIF
CDK7/cyclin H, sequence (P51946 whole entry partner, species assumed): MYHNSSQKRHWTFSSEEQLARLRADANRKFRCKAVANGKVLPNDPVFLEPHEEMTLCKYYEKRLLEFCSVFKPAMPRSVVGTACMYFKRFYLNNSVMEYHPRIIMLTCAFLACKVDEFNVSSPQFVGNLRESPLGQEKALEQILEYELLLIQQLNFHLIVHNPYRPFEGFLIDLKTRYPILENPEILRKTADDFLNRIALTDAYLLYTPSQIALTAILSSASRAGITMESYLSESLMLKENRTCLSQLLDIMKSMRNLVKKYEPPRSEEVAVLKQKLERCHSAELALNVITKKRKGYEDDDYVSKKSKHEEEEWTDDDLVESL
CDK4/cyclin D1, sequence (P11802 whole entry, species assumed): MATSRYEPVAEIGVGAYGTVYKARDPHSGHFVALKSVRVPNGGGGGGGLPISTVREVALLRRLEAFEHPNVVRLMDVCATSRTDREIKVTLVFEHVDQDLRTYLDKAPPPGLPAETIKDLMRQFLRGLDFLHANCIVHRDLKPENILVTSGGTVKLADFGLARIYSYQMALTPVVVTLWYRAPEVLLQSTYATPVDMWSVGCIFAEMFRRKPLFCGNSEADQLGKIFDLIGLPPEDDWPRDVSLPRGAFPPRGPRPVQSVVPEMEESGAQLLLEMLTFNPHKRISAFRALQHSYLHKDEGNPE
CDK4/cyclin D1, sequence (P24385 whole entry partner, species assumed): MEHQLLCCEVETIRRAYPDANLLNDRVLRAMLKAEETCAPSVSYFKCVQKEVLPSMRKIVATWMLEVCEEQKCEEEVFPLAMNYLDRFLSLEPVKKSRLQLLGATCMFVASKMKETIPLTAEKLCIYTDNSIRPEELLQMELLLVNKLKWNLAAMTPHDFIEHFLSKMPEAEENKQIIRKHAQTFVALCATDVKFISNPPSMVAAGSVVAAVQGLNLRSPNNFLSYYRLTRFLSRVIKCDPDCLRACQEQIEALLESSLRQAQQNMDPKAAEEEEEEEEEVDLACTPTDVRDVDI
CDK1/cyclin B, sequence (P06493 whole entry, species assumed): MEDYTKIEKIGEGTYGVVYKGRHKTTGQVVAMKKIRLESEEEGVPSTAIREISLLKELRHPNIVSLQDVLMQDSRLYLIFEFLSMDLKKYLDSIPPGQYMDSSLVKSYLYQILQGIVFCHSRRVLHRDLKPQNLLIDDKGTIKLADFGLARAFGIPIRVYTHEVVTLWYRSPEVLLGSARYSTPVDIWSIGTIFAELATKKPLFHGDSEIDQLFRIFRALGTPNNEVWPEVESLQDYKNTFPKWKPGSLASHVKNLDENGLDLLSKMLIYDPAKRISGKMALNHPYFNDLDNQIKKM
CDK1/cyclin B, sequence (P14635 whole entry partner, species assumed): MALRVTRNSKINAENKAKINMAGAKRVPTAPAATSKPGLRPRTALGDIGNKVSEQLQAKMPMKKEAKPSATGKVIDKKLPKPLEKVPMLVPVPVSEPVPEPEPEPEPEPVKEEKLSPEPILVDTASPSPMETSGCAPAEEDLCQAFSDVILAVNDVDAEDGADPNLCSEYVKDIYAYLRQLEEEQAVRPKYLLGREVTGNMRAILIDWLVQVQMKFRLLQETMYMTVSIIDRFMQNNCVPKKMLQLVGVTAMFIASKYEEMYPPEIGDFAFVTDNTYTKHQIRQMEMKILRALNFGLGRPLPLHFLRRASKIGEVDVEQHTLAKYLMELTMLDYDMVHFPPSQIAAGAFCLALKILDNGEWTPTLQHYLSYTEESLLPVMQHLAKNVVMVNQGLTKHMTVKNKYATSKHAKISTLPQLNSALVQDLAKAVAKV

SMILES	IC50 (CDK2/cyclin E) [µM]	IC50 (GSK3β) [µM]	IC50 (CDK1/cyclin B) [µM]	IC50 (CDK7/cyclin H) [µM]	IC50 (CDK4/cyclin D1) [µM]	IC50 (Aurora-A) [µM]	IC50 (CDK2/cyclin A) [µM]	IC50 (CDK9/cyclin T1) [µM]	IC50 (HT29) [µM]	IC50 [1] [µM]	IC50 (A549) [µM]	IC50 (Saos-2) [µM]
OCc1cccc(Nc2nccc(-c3cccc(O)c3)n2)c1 [Compound 72, 3-[2-(3-Hydroxymethyl-phenylamino)-pyrimidin-4-yl]-phenol]	0.12	0.03	0.15	1.7	0.28	0.04	0.15	–	–	–	–	–
N#Cc1cccc(-c2ccnc(Nc3cccc(O)c3)n2)c1 [Compound 92, 3-[2-(3-Hydroxy-phenylamino)-pyrimidin-4-yl]-benzonitrile]	–	0.08	2.1	–	1.4	0.94	–	0.11	–	–	–	–
CN(C)Cc1cccc(-c2ccnc(Nc3cccc(O)c3)n2)c1 [Compound 80, 3-[4-(3-Dimethylaminomethyl-phenyl)-pyrimidin-2-ylamino]-phenol]	0.07	0.83	0.69	0.72	–	1.5	0.59	0.01	1.6	2.2 ± 1.6	0.86	4
CCN(Cc1cccc(-c2ccnc(Nc3cccc([N+](=O)[O-])c3)n2)c1)C(C)C [Compound 46, (4-{3-[(Ethyl-isopropyl-amino)-methyl]-phenyl}-pyrimidin-2-yl)-(3-nitro-phenyl)-amine]	0.17	0.1	–	0.13	1.4	0.03	0.48	0.002	0.53	0.9 ± 0.3	0.96	1.1
N#Cc1cccc(-c2ccnc(Nc3ccc(O)cc3)n2)c1 [Compound 93, 3-[2-(4-Hydroxy-phenylamino)-pyrimidin-4-yl]-benzonitrile]	–	–	3.1	–	2.5	1	–	–	–	–	–	–
COc1cccc(-c2ccnc(Nc3ccc(O)cc3)n2)c1 [Compound 98, 4-[4-(3-Methoxy-phenyl)-pyrimidin-2-ylamino]-phenol]	0.13	0.35	1.1	–	0.59	0.64	1.4	0.006	–	–	–	–
CN(C)Cc1cccc(-c2ccnc(Nc3ccc(O)cc3)n2)c1 [Compound 81, 4-[4-(3-Dimethylaminomethyl-phenyl)-pyrimidin-2-ylamino]-phenol]	0.11	1.3	1.3	1.4	–	1	0.5	0.02	1.2	2.6 ± 2.1	1.5	5
COc1ccc(-c2ccnc(Nc3ccc(O)cc3)n2)cc1 [Compound 110, 4-[4-(4-Methoxy-phenyl)-pyrimidin-2-ylamino]-phenol]	0.12	–	0.5	1.5	1.3	0.4	0.08	0.02	–	–	–	–
COc1ccc(Nc2nccc(-c3cccc(CN(C)C)c3)n2)cn1 [Compound 83, [4-(3-Dimethylaminomethyl-phenyl)-pyrimidin-2-yl]-(6-methoxy-pyridin-3-yl)-amine]	0.19	0.15	0.38	0.99	–	7.8	0.65	0.02	0.91	1.3 ± 0.4	1.4	1.6
COc1cccc(-c2ccnc(Nc3cccc(O)c3)n2)c1 [Compound 88, 3-[4-(3-Methoxy-phenyl)-pyrimidin-2-ylamino]-phenol]	0.1	0.08	0.57	–	0.2	0.02	1.4	0.005	–	–	–	–
